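Cells were grown in 96-well plates and exposed to each compound for 48 hours at five concentrations; endpoints were interpolated linearly between bracketing concentrations, or set to the highest concentration if not reached. The concentration for 50% growth inhibition is given as GI50.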 Activity calls are given as the source filed them. Cut-off read from the data, not from the text of the source: active = GI50 up to about 1.1 µM and inactive = higher.
Key:
Assay in all cases: NCI tumour cell line growth inhibition, 48 h
A549 = tested on: A549
OVCAR-3 = tested on: OVCAR-3
HCC 2998 = tested on: HCC 2998
SN12C = tested on: SN12C
TK-10 = tested on: TK-10
EKVX = tested on: EKVX
OVCAR-4 = tested on: OVCAR-4
OVCAR-5 = tested on: OVCAR-5
NCI-H522 = tested on: NCI-H522
MOLT-4 = tested on: MOLT-4
SF-268 = tested on: SF-268
NCI-H460 = tested on: NCI-H460
M19-MEL = tested on: M19-MEL
MCF7 = tested on: MCF7
DU-145 = tested on: DU-145
HOP-62 = tested on: HOP-62
MDA-MB-435 = tested on: MDA-MB-435
SR = tested on: SR
MDA-N = tested on: MDA-N
PC-3 = tested on: PC-3

Measured: GI50

Cc1ccc(S(=O)(=O)N[C@H](C(=O)O)c2ccccc2)cc1
inactive: A549 > 100 µM | OVCAR-3 > 100 µM | HCC 2998 > 100 µM | SN12C > 100 µM | TK-10 > 100 µM | EKVX > 100 µM | OVCAR-4 > 100 µM | OVCAR-5 > 100 µM | NCI-H522 > 100 µM | MOLT-4 58.6 µM | SF-268 > 100 µM | NCI-H460 > 100 µM | M19-MEL > 100 µM

CC(C)NC(=O)OCc1c(COC(=O)NC(C)C)c(-c2ccc[n+](COC(=O)Cc3ccccc3)c2)n2c1CCC2
inactive: A549 44.8 µM | OVCAR-3 41 µM | MCF7 25.1 µM | HCC 2998 > 100 µM | DU-145 25.4 µM | SN12C 30.2 µM | TK-10 45 µM | EKVX 85.5 µM | HOP-62 31.7 µM | OVCAR-4 25 µM | MDA-MB-435 71.1 µM | OVCAR-5 36.1 µM | SR 3.15 µM | MDA-N 80 µM | NCI-H522 19 µM | MOLT-4 6.76 µM | SF-268 26.9 µM | NCI-H460 19.8 µM | PC-3 34 µM

CCO/C=N/NC(=O)CSc1nc2ccc(I)cc2c(=O)n1Cc1ccccc1
inactive: A549 > 100 µM | OVCAR-3 60 µM | MCF7 33.6 µM | HCC 2998 43.5 µM | DU-145 > 100 µM | SN12C 84.5 µM | TK-10 34.7 µM | EKVX 22.9 µM | HOP-62 37.4 µM | OVCAR-4 > 100 µM | MDA-MB-435 38.7 µM | OVCAR-5 > 100 µM | SR 33.7 µM | MDA-N 37.8 µM | NCI-H522 3.04 µM | MOLT-4 28.5 µM | SF-268 44.3 µM | NCI-H460 28.8 µM | PC-3 43.9 µM

COc1ccc(N2C(=O)C3c4[nH]c5ccc(OCc6ccccc6)cc5c4C4CCC(c5ccccc5)CC4C3C2=O)cc1 (stereo unspecified)
inactive: A549 9.64 µM | OVCAR-3 57.9 µM | MCF7 29.6 µM | HCC 2998 4.84 µM | DU-145 8.07 µM | SN12C 33.7 µM | TK-10 7.55 µM | EKVX 19.6 µM | HOP-62 3.37 µM | OVCAR-4 1.19 µM | MDA-MB-435 3.22 µM | OVCAR-5 30.5 µM | SR 2.37 µM | MDA-N 22.6 µM | NCI-H522 7.43 µM | MOLT-4 14.7 µM | SF-268 6.85 µM | NCI-H460 4.74 µM | PC-3 8.53 µM

CCOC(=O)CCC(NC(=O)c1ccc(NC(OC)c2nc3cc(C(F)(F)F)ccc3nc2-c2ccccc2)cc1)C(=O)OCC (stereo unspecified)
inactive: A549 18.5 µM | OVCAR-3 18.5 µM | HCC 2998 15.8 µM | SN12C 14.5 µM | TK-10 21 µM | EKVX 18 µM | HOP-62 17 µM | OVCAR-4 21.5 µM | OVCAR-5 17.6 µM | NCI-H522 12.3 µM | MOLT-4 2.67 µM | SF-268 16.6 µM | NCI-H460 12.7 µM | M19-MEL 14.7 µM

O=C1C(c2ccccc2)=C(c2ccccc2)[C@H](c2ccccc2)[C@]1(Cc1nnn(-c2ccc([N+](=O)[O-])cc2)c1N1CCOCC1)c1ccccc1
inactive: A549 > 37.5 µM | OVCAR-3 9.93 µM | HCC 2998 > 37.5 µM | SN12C > 37.5 µM | TK-10 > 37.5 µM | EKVX > 37.5 µM | HOP-62 > 37.5 µM | OVCAR-4 13.7 µM | MOLT-4 12.1 µM | NCI-H460 > 37.5 µM | M19-MEL > 37.5 µM

COc1ccc(N2C(=O)C3c4[nH]c5ccc(F)cc5c4C4CCC(c5ccccc5)CC4C3C2=O)cc1 (stereo unspecified)
inactive: A549 11.6 µM | OVCAR-3 38.3 µM | MCF7 18.7 µM | HCC 2998 39.9 µM | DU-145 66.2 µM | SN12C 26.2 µM | TK-10 21.9 µM | EKVX 24.3 µM | HOP-62 14.3 µM | OVCAR-4 12.7 µM | MDA-MB-435 16.6 µM | OVCAR-5 18.3 µM | SR 6.93 µM | MDA-N 27.4 µM | NCI-H522 13 µM | MOLT-4 8.18 µM | SF-268 5.81 µM | NCI-H460 10 µM | PC-3 14.2 µM

COC(=O)/C=C/c1ccc2c(c1)[C@H](C(=O)OC)[C@@H](c1ccc(O)cc1)O2
inactive: A549 34.2 µM | OVCAR-3 8.91 µM | MCF7 9.02 µM | HCC 2998 10.9 µM | DU-145 71.3 µM | SN12C 43.5 µM | TK-10 41.4 µM | EKVX 40 µM | HOP-62 35.8 µM | OVCAR-4 29.3 µM | MDA-MB-435 3.32 µM | OVCAR-5 > 100 µM | SR 6.62 µM | MDA-N 5.06 µM | NCI-H522 21.4 µM | MOLT-4 8.45 µM | SF-268 30.3 µM | NCI-H460 35.1 µM | PC-3 23.3 µM

CC(Oc1ccc(OCC2CCCCC2)cc1)C(=O)OCC(=O)c1ccc(-c2ccccc2)cc1 (stereo unspecified)
inactive: A549 > 100 µM | OVCAR-3 > 100 µM | HCC 2998 > 100 µM | SN12C > 100 µM | TK-10 > 100 µM | OVCAR-4 > 100 µM | NCI-H522 > 100 µM | MOLT-4 > 100 µM | SF-268 > 100 µM | NCI-H460 > 100 µM | M19-MEL > 100 µM

CC(C)(C)c1cc(OCc2nn3c(Cc4ccccc4)nnc3s2)c(Cl)cc1OCc1nn2c(Cc3ccccc3)nnc2s1
inactive: A549 29.7 µM | OVCAR-3 15.6 µM | MCF7 22.5 µM | HCC 2998 53.6 µM | DU-145 30.5 µM | SN12C 34.8 µM | TK-10 34.4 µM | EKVX 12.9 µM | HOP-62 94.2 µM | OVCAR-4 19.8 µM | MDA-MB-435 26.4 µM | OVCAR-5 60.8 µM | SR 39.9 µM | MDA-N 36.5 µM | NCI-H522 23.5 µM | MOLT-4 8.93 µM | SF-268 55.5 µM | NCI-H460 28.2 µM | PC-3 20.1 µM

N#CCCc1nc2ccc(Br)cc2c(=O)n1CCO
inactive: A549 > 100 µM | OVCAR-3 > 100 µM | HCC 2998 > 100 µM | SN12C > 100 µM | TK-10 > 100 µM | EKVX > 100 µM | HOP-62 > 100 µM | OVCAR-4 > 100 µM | NCI-H522 > 100 µM | MOLT-4 > 100 µM | SF-268 > 100 µM | M19-MEL > 100 µM

COc1cc2c(cc1OC)[C@]1(O)C(=O)c3ccc4c(c3O[C@@H]1CO2)C[C@H](C(C)(C)O)O4
inactive: A549 > 100 µM | OVCAR-3 74.3 µM | HCC 2998 > 100 µM | TK-10 > 100 µM | EKVX 10.3 µM | HOP-62 > 100 µM | OVCAR-5 > 100 µM | NCI-H522 5.86 µM | MOLT-4 48.9 µM | NCI-H460 > 100 µM | M19-MEL > 100 µM

Reference: ChEMBL document CHEMBL1201862, “PubChem BioAssay data set” (2004)
